This note sets out measurements from PubChem BioAssay AID330 (DTP/NCI, 2004).

Each structure is given as a SMILES string. Several values for one entry are separate records, joined by “and”; a condition that tells them apart may be missing. Equal entries are not always repeated. Inconclusive results and toxic doses are left out.

The test system of this experiment is P388 leukemia ip, CD2F1 mice, survival T/C. The experiment is described as follows: NCI In Vivo Anticancer Drug Screen. Data for tumor model P388 Leukemia (intraperitoneal) in CD2F1 (CDF1) mice. As to conditions: endpoint: median survival time, higher = longer survival. In outline: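 Mice carrying the transplanted tumor received test compound or vehicle. Survival was recorded in each group, and the value is the treated-group measurement divided by that of the vehicle-treated control group.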

[1] abbreviates: dose: 50.0 mg/kg/injection, schedule: Q01DX009 (ip), vehicle: saline.
[2] abbreviates: dose: 100.0 mg/kg/injection, schedule: Q01DX009 (ip), vehicle: saline.
Setting [3] is: dose: 200.0 mg/kg/injection, schedule: Q01DX009 (ip), vehicle: saline.
[4] abbreviates: dose: 25.0 mg/kg/injection, schedule: Q01DX009 (ip), vehicle: saline with Tween-80.
Where [5] appears, read: dose: 50.0 mg/kg/injection, schedule: Q01DX009 (ip), vehicle: saline with Tween-80.
Where [6] appears, read: dose: 12.5 mg/kg/injection, schedule: Q04DX003 (ip), vehicle: saline with Tween-80.
Where [7] appears, read: dose: 50.0 mg/kg/injection, schedule: Q04DX003 (ip), vehicle: saline with Tween-80.
[8] abbreviates: dose: 100.0 mg/kg/injection, schedule: Q01DX001 (ip), vehicle: saline with Tween-80.
Where [9] appears, read: dose: 200.0 mg/kg/injection, schedule: Q01DX001 (ip), vehicle: saline with Tween-80.

Consider `CCCCONc1ccnc(=O)[nH]1`, for which the T/C (dose: 37.5 mg/kg/injection, schedule: Q01DX001 (ip), vehicle: saline) is 100 % of control; the T/C (dose: 75.0 mg/kg/injection, schedule: Q01DX001 (ip), vehicle: saline) was 100 % of control; the T/C (dose: 150.0 mg/kg/injection, schedule: Q01DX001 (ip), vehicle: saline) is 107 % of control.
As to `C=C(C)CC1=C(C)C(=O)C(C)=C(C)C1=O`, the T/C reads like this: (dose: 75.0 mg/kg/injection, schedule: Q04DX003 (ip), vehicle: Klucel (hydroxypropylcellulose) (HPC)) 110 % of control; (dose: 150.0 mg/kg/injection, schedule: Q04DX003 (ip), vehicle: Klucel (hydroxypropylcellulose) (HPC)) 105 % of control; (dose: 300.0 mg/kg/injection, schedule: Q04DX003 (ip), vehicle: Klucel (hydroxypropylcellulose) (HPC)) 122 % of control.
As to `CC(=O)NCC(CN(C)C)(c1ccccc1)c1ccccc1`, the T/C is 101 % of control (dose: 37.5 mg/kg/injection, schedule: Q01DX009 (ip), vehicle: Klucel (hydroxypropylcellulose) (HPC)); 101 % of control (dose: 75.0 mg/kg/injection, schedule: Q01DX009 (ip), vehicle: Klucel (hydroxypropylcellulose) (HPC)); 96 % of control (dose: 150.0 mg/kg/injection, schedule: Q01DX009 (ip), vehicle: Klucel (hydroxypropylcellulose) (HPC)); 95 % of control (dose: 300.0 mg/kg/injection, schedule: Q01DX009 (ip), vehicle: Klucel (hydroxypropylcellulose) (HPC)).
In the case of `O=C(Nc1cccc(Cl)c1Cl)Oc1ccc(Cl)cc1C(=O)c1ccccc1`, the T/C by setting is: under setting [1], 94 % of control; under setting [2], 89 % of control; under setting [3], 99 % of control.
As for `O=S(=O)(O)O`, the T/C is, setting by setting: (dose: 30.0 mg/kg/injection, schedule: Q01DX009 (ip), vehicle: water) 108 % of control; (dose: 100.0 mg/kg/injection, schedule: Q01DX009 (ip), vehicle: water) 86 % of control.
In the case of `c1nc(SSc2ncnc3nc[nH]c23)c2[nH]cnc2n1`, the T/C was 113 % of control (dose: 12.5 mg/kg/injection, schedule: Q01DX009 (ip), vehicle: saline with Tween-80); 118 % of control under setting [4]; 100 % of control under setting [5].
As for `C=C(c1ccc(OC)cc1)C(CC)c1ccc(OC)cc1` (configuration not stated), the T/C is 101 % of control (dose: 60.0 mg/kg/injection, schedule: Q01DX005 (ip), vehicle: saline with Tween-80) and 100 % of control (dose: 120.0 mg/kg/injection, schedule: Q01DX005 (ip), vehicle: saline with Tween-80).
As to `CC(=O)OCC1OC(OC(C)=O)C(N(CCCl)CCCl)C(OC(C)=O)C1OC(C)=O` (configuration not stated), the T/C reads like this: (dose: 0.31 mg/kg/injection, schedule: Q01DX005 (ip), vehicle: water) 151 % of control; (dose: 0.62 mg/kg/injection, schedule: Q01DX005 (ip), vehicle: water) 151 % of control; (dose: 1.25 mg/kg/injection, schedule: Q01DX005 (ip), vehicle: distilled water + Tween-80) 181 % of control; (dose: 1.25 mg/kg/injection, schedule: Q01DX005 (ip), vehicle: water) 177 % of control; (dose: 2.5 mg/kg/injection, schedule: Q01DX005 (ip), vehicle: distilled water + Tween-80) 216 % of control; (dose: 2.5 mg/kg/injection, schedule: Q01DX005 (ip), vehicle: water) 213 % of control. Also, the T/C (dose: 5.0 mg/kg/injection, schedule: Q01DX005 (ip), vehicle: water) was 110 % of control.
For `C[n+]1ccc(NC(=O)c2ccc(NC(=O)c3cccc(C(=O)Nc4ccc(C(=O)Nc5cc[n+](C)cc5)cc4)c3)cc2)cc1`, the T/C is 112 % of control (dose: 6.25 mg/kg/injection, schedule: Q04DX003 (ip), vehicle: saline with Tween-80); 120 % of control under setting [6]; 159 % of control under setting [4]; 195 % of control under setting [5]; 154 % of control under setting [7]; 170 % of control (dose: 66.0 mg/kg/injection, schedule: Q04DX003 (ip), vehicle: saline with Tween-80).
Take `COc1ccc(OC)c2c(=O)cc(C)[nH]c12`: the T/C reads like this: (dose: 16.5 mg/kg/injection, schedule: Q01DX009 (ip), vehicle: saline with Tween-80) 107 % of control and 112 % of control; under setting [4], 107 % of control and 111 % of control and 121 % of control; (dose: 37.5 mg/kg/injection, schedule: Q01DX009 (ip), vehicle: saline with Tween-80) 113 % of control and 124 % of control; under setting [5], 114 % of control; (dose: 100.0 mg/kg/injection, schedule: Q01DX009 (ip), vehicle: saline with Tween-80) 107 % of control; (dose: 200.0 mg/kg/injection, schedule: Q01DX009 (ip), vehicle: saline with Tween-80) 107 % of control.
Consider `COC(=O)c1cc(C)n(Cc2ccccc2)c1`, for which the T/C under setting [8] is 97 % of control; the T/C under setting [9] is 99 % of control; the T/C (dose: 400.0 mg/kg/injection, schedule: Q01DX001 (ip), vehicle: saline with Tween-80) was 97 % of control.
As for `C/C(=C\C(=O)c1ccccc1)N1CCN(c2ccc(F)cc2)CC1`, the T/C was 102 % of control (dose: 50.0 mg/kg/injection, schedule: Q01DX005 (ip), vehicle: Klucel (hydroxypropylcellulose) (HPC)); 105 % of control (dose: 100.0 mg/kg/injection, schedule: Q01DX005 (ip), vehicle: Klucel (hydroxypropylcellulose) (HPC)); 96 % of control (dose: 200.0 mg/kg/injection, schedule: Q01DX005 (ip), vehicle: Klucel (hydroxypropylcellulose) (HPC)).
Take `CCOc1cc(/C=N\NC(=O)C(=O)N/N=C\c2ccc(O)c(OCC)c2)ccc1O`: the T/C runs as follows: (dose: 50.0 mg/kg/injection, schedule: Q01DX009 (ip), vehicle: Klucel (hydroxypropylcellulose) (HPC)) 96 % of control; (dose: 100.0 mg/kg/injection, schedule: Q01DX009 (ip), vehicle: Klucel (hydroxypropylcellulose) (HPC)) 94 % of control; (dose: 200.0 mg/kg/injection, schedule: Q01DX009 (ip), vehicle: Klucel (hydroxypropylcellulose) (HPC)) 94 % of control.
Regarding `Nc1cc2c(c[n+](CCCCCCCCC[n+]3cc4c5ccccc5c(N)cc4c4ccccc43)c3ccccc23)c2ccccc12`, the T/C was 150 % of control (dose: 0.39 mg/kg/injection, schedule: Q04DX003 (ip), vehicle: other); 173 % of control (dose: 0.78 mg/kg/injection, schedule: Q04DX003 (ip), vehicle: other); 162 % of control (dose: 1.56 mg/kg/injection, schedule: Q04DX003 (ip), vehicle: other); 173 % of control (dose: 3.13 mg/kg/injection, schedule: Q04DX003 (ip), vehicle: other); 169 % of control and 191 % of control (dose: 6.25 mg/kg/injection, schedule: Q04DX003 (ip), vehicle: other); 117 % of control and 95 % of control (dose: 12.5 mg/kg/injection, schedule: Q04DX003 (ip), vehicle: other).
Consider `O=c1[nH]n(-c2ccccc2)c2ccccc12`, for which the T/C runs as follows: under setting [6], 94 % of control; (dose: 25.0 mg/kg/injection, schedule: Q04DX003 (ip), vehicle: saline with Tween-80) 90 % of control; under setting [7], 90 % of control; (dose: 100.0 mg/kg/injection, schedule: Q04DX003 (ip), vehicle: saline with Tween-80) 95 % of control.
Regarding `CCCCN1CS[C@@H]2CCCC[C@H]21`, the T/C (dose: 21.0 mg/kg/injection, schedule: Q01DX005 (ip), vehicle: Klucel (hydroxypropylcellulose) (HPC)) was 104 % of control; the T/C (dose: 42.0 mg/kg/injection, schedule: Q01DX005 (ip), vehicle: Klucel (hydroxypropylcellulose) (HPC)) was 113 % of control; the T/C (dose: 84.0 mg/kg/injection, schedule: Q01DX005 (ip), vehicle: Klucel (hydroxypropylcellulose) (HPC)) was 116 % of control.
With `O=C(O)/C=N/NS(=O)(=O)/C=C/c1ccccc1`, the T/C was 166 % of control (dose: 25.0 mg/kg/injection, schedule: Q01DX009 (ip), vehicle: distilled water + Tween-80); 172 % of control (dose: 50.0 mg/kg/injection, schedule: Q01DX009 (ip), vehicle: distilled water + Tween-80); 112 % of control (dose: 100.0 mg/kg/injection, schedule: Q01DX009 (ip), vehicle: distilled water + Tween-80).
As to `O=C(Nc1ccc([N+](=O)[O-])cc1C(Sc1ccccc1)c1ccccc1)c1ccc([N+](=O)[O-])cc1` (configuration not stated), the T/C reads like this: under setting [8], 94 % of control; under setting [9], 87 % of control.
In the case of `CCOC(=O)NOCOC`, the T/C reads like this: under setting [1], 115 % of control; under setting [2], 114 % of control; under setting [3], 109 % of control.
In the case of `CCn1c(=O)c(C(C)=O)cc2c(=O)c3c(ccc4ccccc43)oc21`, the T/C runs as follows: (dose: 50.0 mg/kg/injection, schedule: Q01DX005 (ip), vehicle: saline with Tween-80) 104 % of control; (dose: 100.0 mg/kg/injection, schedule: Q01DX005 (ip), vehicle: saline with Tween-80) 93 % of control; (dose: 200.0 mg/kg/injection, schedule: Q01DX005 (ip), vehicle: saline with Tween-80) 91 % of control.
